Assay results: paper PMC11873611 (Acta Pharmaceutica Sinica. B, 2024)
Residue numbers refer to the chain shown, from its start.

How the values were obtained:
[1] = target: T1, PGAM5 (Mus musculus, UniProt Q8BX10); experiment: DARTS, CETSA and SIP target engagement in BMDMs; type: cell-based
T1 sequence (Q8BX10 1-288): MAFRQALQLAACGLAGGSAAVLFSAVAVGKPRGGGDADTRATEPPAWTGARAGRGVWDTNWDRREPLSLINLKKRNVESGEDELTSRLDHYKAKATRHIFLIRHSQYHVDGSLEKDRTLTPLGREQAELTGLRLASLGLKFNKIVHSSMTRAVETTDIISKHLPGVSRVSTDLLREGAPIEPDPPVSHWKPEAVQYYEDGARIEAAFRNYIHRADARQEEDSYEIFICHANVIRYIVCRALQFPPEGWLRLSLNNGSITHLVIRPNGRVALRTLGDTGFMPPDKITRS

[2] = target: T2, PGAM5 (Homo sapiens, UniProt Q96HS1, C168A); experiment: in vitro PGAM5 phosphatase assay; type: biochemical
T2 sequence (Q96HS1 22-289 C168A): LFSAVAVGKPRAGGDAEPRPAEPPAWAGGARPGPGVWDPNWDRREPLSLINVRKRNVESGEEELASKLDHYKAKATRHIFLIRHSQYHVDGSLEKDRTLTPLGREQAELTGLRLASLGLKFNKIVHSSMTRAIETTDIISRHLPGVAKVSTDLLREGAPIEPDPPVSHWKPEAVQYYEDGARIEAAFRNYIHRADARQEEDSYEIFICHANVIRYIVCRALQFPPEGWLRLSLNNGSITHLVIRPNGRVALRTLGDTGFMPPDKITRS

[3] = target: T3, PGAM5 (Homo sapiens, UniProt Q96HS1, C229A); experiment: in vitro PGAM5 phosphatase assay; type: biochemical
T3 sequence (Q96HS1 22-289 C229A): T2 sequence (Q96HS1 22-289 C168A) with A147C, C208A

[4] = target: T4, PGAM5 (Homo sapiens, UniProt Q96HS1); experiment: SPR; type: binding
T4 sequence (Q96HS1 22-289): T2 sequence (Q96HS1 22-289 C168A) with A147C

[5] = target: T4, PGAM5; experiment: SPR; type: binding; remark: listed apart in the source

Compound | DARTS, CETSA and SIP target engagement in BMDMs [1] | in vitro PGAM5 phosphatase assay (phosphopeptide, BIOMOL Green) [2] | in vitro PGAM5 phosphatase assay (phosphopeptide, BIOMOL Green) [3] | Kd [4] | SPR (Fig. S9L and S9M) [5]
O=C1O[C@H]2[C@@H]3OC(=O)c4cc(O)c(O)c(O)c4-c4c(O)c(O)c5oc(=O)c6c(c(O)c(O)c7oc(=O)c4c5c76)-c4c(cc(O)c(O)c4O)C(=O)OC[C@H]3OC(O)[C@@H]2OC(=O)c2cc(O)c(O)c(O)c2-c2c1cc(O)c(O)c2O (mixture of isomers) [punicalagin] | punicalagin significantly restrained the proteolysis of PGAM5 by pronase, further supporting that punicalagin could bind to PGAM5 in BMDMs | punicalagin still inhibited the phosphatase activity of PGAM5 C168A or C229A protein mutant | punicalagin still inhibited the phosphatase activity of PGAM5 C168A or C229A protein mutant | ~0.3 nM | 
O=C1OC[C@H]2OC(O)[C@H](O)[C@@H](O)[C@@H]2OC(=O)c2cc(O)c(O)c(O)c2-c2c(O)c(O)c3oc(=O)c4c(c(O)c(O)c5oc(=O)c2c3c54)-c2c1cc(O)c(O)c2O (mixture of isomers) [punicalin] |  |  |  |  | there was a similar direct interaction between punicalin and ΔN21 PGAM5 or ΔN90 PGAM5 compared with punicalagin
